# Data from ChEMBL document CHEMBL5042506, “Discovery of Orally Available Retinoic Acid Receptor-Related Orphan Receptor γ-t/Dihydroorotate Dehydrogenase Dual Inhibitors for the Treatment of Refractory Inflammatory Bowel Disease” (J Med Chem, 2022).
# Tests used:
# Assay type in all cases: ADME, organism-based
# [1] = Clearance in ICR mouse at 1 mg/kg, iv measured over 24 hrs by LC-MS/MS analysis; conditions: in vivo
# [2] = Cmax in ICR mouse at 1 mg/kg, iv measured over 24 hrs by LC-MS/MS analysis; set-up: route intravenous, dose 1 mg/kg, time >24; conditions: in vivo
# [3] = Volume of distribution at steady state in ICR mouse at 1 mg/kg, iv measured over 24 hrs by LC-MS/MS analysis; conditions: in vivo, read-out: Vdss
# [4] = AUC (0 to last) in ICR mouse at 5 mg/kg, po measured over 24 hrs by LC-MS/MS analysis; set-up: route oral, dose 5 mg/kg, time >24; conditions: in vivo
# [5] = Cmax in ICR mouse at 5 mg/kg, po measured over 24 hrs by LC-MS/MS analysis; set-up: route oral, dose 5 mg/kg, time >24; conditions: in vivo
# [6] = AUC (0 to last) in ICR mouse at 1 mg/kg, iv measured over 24 hrs by LC-MS/MS analysis; set-up: route intravenous, dose 1 mg/kg, time >24; conditions: in vivo
# [7] = Oral bioavailability in ICR mouse at 5 mg/kg measured over 24 hrs by LC-MS/MS analysis; conditions: in vivo
compound,measurement,setting,value
Cc1c(Nc2nc3c(s2)CCCC3O)cc(Cl)cc1OC1CCN(C(=O)CC(C(F)(F)F)C(F)(F)F)CC1 (racemic),clearance,[1],26.6 mL/min/kg
same,Cmax,[2],590 ng/mL
same,Vd,[3],2.95 L/kg
same,AUC(0-t) at 24 h,[4],599 ng·h/mL
same,Cmax,[5],213 ng/mL
same,AUC(0-t) at 24 h,[6],634 ng·h/mL
same,bioavailability,[7],18.9%
